Patent publication US10933056B2, “3-(1H-pyrazol-4-yl)pyridine allosteric modulators of the M4 muscarinic acetylcholine receptor” (Merck Sharp & Dohme Corp., priority 2015, dated 2021)

What follows are compounds tested against T1, human M4 muscarinic acetylcholine receptor (Homo sapiens, UniProt P08173) (assay: human FLIPR-based M4 PAM assay (calcium mobilization in CHO-K1 cells with human M4 receptor and Gαqi5)). Conditions: inflection point of dose response curve, acetylcholine at 20% of maximum response, FLIPR Tetra, read-out: M4 PAM IP.
T1 construct: expressed in transfected cells; host or cells: CHO-K1
T1 sequence (P08173 1-479): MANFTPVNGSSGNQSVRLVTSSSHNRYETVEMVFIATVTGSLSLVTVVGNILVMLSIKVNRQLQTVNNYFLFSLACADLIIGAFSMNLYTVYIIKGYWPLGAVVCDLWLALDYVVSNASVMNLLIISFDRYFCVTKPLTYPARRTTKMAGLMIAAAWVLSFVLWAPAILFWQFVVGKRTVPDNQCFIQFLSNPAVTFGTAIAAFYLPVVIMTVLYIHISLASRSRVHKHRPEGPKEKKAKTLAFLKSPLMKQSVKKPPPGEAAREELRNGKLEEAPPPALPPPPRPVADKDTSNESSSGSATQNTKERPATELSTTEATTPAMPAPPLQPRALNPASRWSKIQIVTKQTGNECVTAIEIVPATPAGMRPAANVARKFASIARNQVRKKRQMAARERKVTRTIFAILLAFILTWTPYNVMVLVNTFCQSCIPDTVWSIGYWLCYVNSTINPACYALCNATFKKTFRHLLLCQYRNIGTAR
Format: cell-based
Summary of the method: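 CHO-K1 cells stably expressing human M4 and chimeric Gαqi5 were dye-loaded ~1 h at 37° C. Test compound was added with fluorescence recorded 4 min, then acetylcholine at EC20 (sometimes a further EC70 addition) with reading 3.5 min. Value is the inflection point of a 4-parameter logistic fit.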

| EC50 [nM] | SMILES |
| --- | --- |
| 45 | O=C1c2cc(-c3ncccc3-c3cnn(CC4CCCC4)c3)ccc2CN1CCc1ccccc1 [Example 92, 6-(3-(1-(cyclopentylmethyl)-1H-pyrazol-4-yl)pyridin-2-yl)-2-phenethylisoindolin-1-one] |
| 58 | O=C1c2cc(-c3ncccc3-c3cnn(CC4CCCC4)c3)ccc2CN1C1CC1 [Example 93, 6-(3-(1-(cyclopentyl-methyl)-1H-pyrazol-4-yl)pyridin-2-yl)-2-cyclopropylisoindolin-1-one] |
| 29 | O=C1c2cc(-c3ncccc3-c3cnn(CC4CCCC4)c3)ccc2CN1CCc1ccc(O)cc1 [Example 94, 6-(3-(1-(cyclopentylmethyl)-1H-pyrazol-4-yl)pyridin-2-yl)-2-(4-hydroxyphenethyl)isoindolin-1-one] |
| 21 | CN1Cc2ncc(-c3nc(C#N)ccc3-c3cnn(CC4(C)CCCC4)c3)cc2C1=O [Example 95, 6-(6-Methyl-5-oxo-6,7-dihydro-5H-pyrrolo[3,4-b]pyridin-3-yl)-5-(1-((1-methylcyclopentyl)methyl)-1H-pyrazol-4-yl)picolinonitrile] |
| 56 | CN1Cc2ccc(-c3ncccc3-c3cnn(CC4CCCC4)c3)cc2C1=O [Example 96, 6-(3-(1-(cyclopentylmethyl)-1H-pyrazol-4-yl)pyridin-2-yl)-2-methylisoindolin-1-one] |
| 16 | Cc1ccc(-c2cnn(CC3CCCC3)c2)c(-c2ccc3c(c2)C(=O)N(C)C3)n1 [Example 97, 6-(3-(1-(cyclopentylmethyl)-1H-pyrazol-4-yl)-6-methylpyridin-2-yl)-2-methylisoindolin-1-one] |
| 29 | Cc1ccc(-c2cnn(CC3(C)CCCC3)c2)c(-c2ccc3c(c2)C(=O)N(C)C3=O)n1 [Example 98, 2-methyl-5-(6-methyl-3-(1-((1-methylcyclopentyl)methyl)-1H-pyrazol-4-yl)pyridin-2-yl)isoindoline-1,3-dione] |
| 19 | Cc1ccc(-c2cnn(CC3(C)CCCC3)c2)c(-c2ccc3c(c2)C(=O)NC3=O)n1 [Example 99, 5-(6-methyl-3-(1-((1-methylcyclopentyl)methyl)-1H-pyrazol-4-yl)pyridin-2-yl)isoindoline-1,3-dione] |
| 26 | Cc1cc(-c2cnn(CC3(C)CCCC3)c2)c(-c2cnc3c(c2)C(=O)N(C)C3)nc1Cl [Example 100, 3-(6-chloro-5-methyl-3-(1-((1-methylcyclopentyl)methyl)-1H-pyrazol-4-yl)pyridin-2-yl)-6-methyl-6,7-dihydro-5H-pyrrolo[3,4-b]pyridin-5-one] |
| 18 | CC1(Cn2cc(-c3ccc(C#N)nc3-c3cnc4c(c3)C(=O)NC4)cn2)CCCC1 [Example 101, 5-(1-((1-methylcyclopentyl)methyl)-1H-pyrazol-4-yl)-6-(5-oxo-6,7-dihydro-5H-pyrrolo[3,4-b]pyridin-3-yl)picolinonitrile] |
| 35 | CC1(Cn2cc(-c3ccc(C#N)nc3-c3cnc4c(c3)C(=O)N(CC3CC3)C4)cn2)CCCC1 [Example 102, 6-(6-(cyclopropylmethyl)-5-oxo-6,7-dihydro-5H-pyrrolo[3,4-b]pyridin-3-yl)-5-(1-((1-methylcyclopentyl)methyl)-1H-pyrazol-4-yl)picolinonitrile] |
| 33 | CC1(Cn2cc(-c3ccc(C#N)nc3-c3cnc4c(c3)C(=O)N(CCF)C4)cn2)CCCC1 [Example 103, 6-(6-(2-fluoroethyl)-5-oxo-6,7-dihydro-5H-pyrrolo[3,4-b]pyridin-3-yl)-5-(1-((1-methylcyclopentyl)methyl)-1H-pyrazol-4-yl)picolinonitrile] |
| 14 | Cc1ccc(-c2cnn(CC3(C)CCCC3)c2)c(-c2ccc3c(c2)C(=O)NC3)n1 [Example 104, 6-(6-methyl-3-(1-((1-methylcyclopentyl)methyl)-1H-pyrazol-4-yl)pyridin-2-yl)isoindolin-1-one] |
| 36 | CC1(Cn2cc(-c3ccc(C#N)nc3-c3cnc4c(c3)C(=O)N(C3CC3)C4)cn2)CCCC1 [Example 105, 6-(6-cyclopropyl-5-oxo-6,7-dihydro-5H-pyrrolo[3,4-b]pyridin-3-yl)-5-(1-((1-methylcyclopentyl)methyl)-1H-pyrazol-4-yl)picolinonitrile] |
| 43 | CC1(Cn2cc(-c3ccc(Cl)nc3-c3cnc4c(c3)C(=O)N(CC3CC3)C4)cn2)CCCC1 [Example 106, 3-(6-chloro-3-(1-((1-methylcyclopentyl)methyl)-1H-pyrazol-4-yl)pyridin-2-yl)-6-(cyclopropylmethyl)-6,7-dihydro-5H-pyrrolo[3,4-b]pyridin-5-one] |
| 15 | CN1Cc2ccc(-c3nc(Cl)ccc3-c3cnn(CC4CCCC4)c3)cc2C1=O [Example 107, 6-(6-Chloro-3-(1-(cyclopentylmethyl)-1H-pyrazol-4-yl)pyridin-2-yl)-2-methylisoindolin-1-one] |
| 17 | O=C1c2cc(-c3nc(Cl)ccc3-c3cnn(CC4CCCC4)c3)ccc2CN1C1CC1 [Example 108, 6-(6-chloro-3-(1-(cyclopentylmethyl)-1H-pyrazol-4-yl)pyridin-2-yl)-2-cyclopropylisoindolin-1-one] |
| 48 | Cc1cc(-c2cnn(CC3(C)CCCC3)c2)c(-c2ccc3c(c2)C(=O)N(C)C3)nc1C [Example 109, 6-(5,6-Dimethyl-3-(1-((1-methylcyclopentyl)methyl)-1H-pyrazol-4-yl)pyridin-2-yl)-2-methylisoindolin-1-one] |
| 86 | CN1Cc2ccc(-c3nc(C#N)ccc3-c3cn(CC4(C)CCCC4)nc3C#N)cc2C1=O [Example 110, 5-(3-Cyano-1-((1-methylcyclopentyl)methyl)-1H-pyrazol-4-yl)-6-(2-methyl-3-oxoisoindolin-5-yl)picolinonitrile] |
| 35 | Cc1cc(-c2cnn(CC3(C)CCCC3)c2)c(-c2ccc3c(c2)C(=O)N(C)C3)nc1C#N [Example 111, 3-Methyl-6-(2-methyl-3-oxoisoindolin-5-yl)-5-(1-((1-methylcyclopentyl)methyl)-1H-pyrazol-4-yl)picolinonitrile] |
| 27 | Cc1cc(-c2cnn(CC3(C)CCCC3)c2)c(-c2cnc3c(c2)C(=O)N(C)C3)nc1C#N [Example 112, 3-methyl-6-(6-methyl-5-oxo-6,7-dihydro-5H-pyrrolo[3,4-b]pyridin-3-yl)-5-(1-((1-methylcyclopentyl)-methyl)-1H-pyrazol-4-yl)picolinonitrile] |
| 36 | Cc1cc(-c2cnn(CC3(C)CCCC3)c2)c(-c2ccc3c(c2)C(=O)NC3)nc1C#N [Example 112A, 3-methyl-5-(1-((1-methylcyclopentyl)methyl)-1H-pyrazol-4-yl)-6-(3-oxoisoindolin-5-yl)picolinonitrile] |
| 69 | Cc1cc(-c2cnn(CC3(C)CCCC3)c2)c(-c2ccc3c(c2)C(=O)N(C)C3)nc1C(N)=O [Example 113, 3-Methyl-6-(2-methyl-3-oxoisoindolin-5-yl)-5-(1-((1-methylcyclopentyl)methyl)-1H-pyrazol-4-yl)picolinamide] |
| 205 | CC1(Cn2cc(-c3ccc(C(N)=O)nc3-c3ccc4c(c3)C(=O)NC4)cn2)CCCC1 [Example 113A, 5-(1-((1-methylcyclopentyl)methyl)-1H-pyrazol-4-yl)-6-(3-oxoisoindolin-5-yl)picolinamide] |
| 57 | Cc1cc(-c2cnn(CC3(C)CCCC3)c2)c(-c2ccc3c(c2)C(=O)N(C)C3)nc1CF [Example 114, 6-(6-(Fluoromethyl)-5-methyl-3-(1-((1-methylcyclopentyl)methyl)-1H-pyrazol-4-yl)pyridin-2-yl)-2-methylisoindolin-1-one] |
| 47 | CN1Cc2ccc(-c3nc(CF)c(F)cc3-c3cnn(CC4(C)CCCC4)c3)cc2C1=O [Example 115, 6-(5-fluoro-6-(fluoromethyl)-3-(1-((1-methylcyclo-pentyl)-methyl)-1H-pyrazol-4-yl)pyridin-2-yl)-2-methylisoindolin-1-one] |
| 326 | COCc1nc(-c2ccc3c(c2)C(=O)N(C)C3)c(-c2cnn(CC3(C)CCCC3)c2)cc1C [Example 116, 6-(6-(Methoxymethyl)-5-methyl-3-(1-((1-methylcyclopentyl)methyl)-1H-pyrazol-4-yl)pyridin-2-yl)-2-methylisoindolin-1-one] |
| 32 | C#CCN1Cc2ncc(-c3nc(CF)ccc3-c3cnn(CC4(C)CCCC4)c3)cc2C1=O [Example 117, 3-(6-(Fluoromethyl)-3-(1-((1-methylcyclopentyl)methyl)-1H-pyrazol-4-yl)pyridin-2-yl)-6-(prop-2-yn-1-yl)-6,7-dihydro-5H-pyrrolo[3,4-b]pyridin-5-one] |
| 79 | C#CCN1Cc2ncc(-c3nc4c(cc3-c3cnn(CC5(C)CCCC5)c3)CCC4)cc2C1=O [Example 118, 3-(3-(1-((1-methylcyclopentyl)methyl)-1H-pyrazol-4-yl)-6,7-dihydro-5H-cyclopenta[b]pyridin-2-yl)-6-(prop-2-yn-1-yl)-6,7-dihydro-5H-pyrrolo[3,4-b]pyridin-5-one] |
| 50 | CC1(Cn2cc(-c3cc4c(nc3-c3cnc5c(c3)C(=O)N(CCF)C5)CCC4)cn2)CCCC1 [Example 118A, 6-(2-fluoroethyl)-3-(3-(1-((1-methylcyclopentyl)methyl)-1H-pyrazol-4-yl)-6,7-dihydro-5H-cyclopenta[b]pyridin-2-yl)-6,7-dihydro-5H-pyrrolo[3,4-b]pyridin-5-one] |
